According to patent US10155021B2, “Antimicrobial 4-oxoquinolizines” (Emergent Product Development Gaithersburg Inc., priority 2011, dated 2018):
In brackets after ≈: the same amount, converted by molar mass. Where two headings read alike, the source gives them in different places.

What was measured:
B. thailandensis = assay: microbe, parasite or virus in culture; type: cell-based, Burkholderia thailandensis; settings: for MIC90: Burkholderia thailandensis, read-out: MIC90 B. thailandensis
S. epidermis 12228 = assay: MIC, standard panel of Gram-positive and Gram-negative bacteria (CLSI); type: cell-based, Staphylococcus epidermis; settings: Staphylococcus, 12228; CAMHB; read-out: MIC S. epidermis 12228
A. baumannii A390 [1] = assay: MIC without and with sub-inhibitory polymyxin B (Example 4); type: cell-based, Acinetobacter baumannii; settings: Acinetobacter baumannii, A390, A. baumannii A390, without polymyxin B, read-out: MIC without PB
A. baumannii A387 [2] = assay: as above; type: cell-based, Acinetobacter baumannii; settings: Acinetobacter baumannii, A387, A. baumannii A387, without polymyxin B, read-out: MIC without PB
S. aureus SMITH = assay: MIC, panel of quinolone-resistant strains (CLSI); type: cell-based; settings: Staphylococcus aureus; CIP R
Klebsiella ssp KPC-3 = assay: MIC, panel of quinolone-resistant strains (CLSI); type: cell-based, Klebsiella spp; settings: KPC3, CIP R, ESBL
P. aeruginosa 27853 = assay: MIC, standard panel of Gram-positive and Gram-negative bacteria (CLSI); type: cell-based, Pseudomonas aeruginosa; settings: Pseudomonas aeruginosa, 27853; CAMHB; read-out: MIC P. aeruginosa 27853
S. aureus 25923 = assay: as above; type: cell-based, Staphylococcus aureus; settings: Staphylococcus aureus, 25923; CAMHB; read-out: MIC S. aureus 25923
P. aeruginosa 143-3-03 = assay: MIC, panel of quinolone-resistant strains (CLSI); type: cell-based; settings: Pseudomonas aeruginosa, 143303; CIP I, POL R
A. Baumanii OXA-51 = assay: MIC, panel of quinolone-resistant strains (CLSI); type: cell-based; settings: Acinetobacter baumannii; CIP R, ESBL
A. baumannii A390 [3] = assay: MIC determination for Acinetobacter strains (Example 3); type: cell-based; settings: LEV R, CIP R, MRP R, IPM I, AMK R, TET I
A. baumannii J2 [4] = assay: Preliminary MBC without and with sub-inhibitory polymyxin B (Example 4); type: cell-based, Acinetobacter baumannii; settings: Acinetobacter baumannii, J2, A. baumannii J2, without polymyxin B, preliminary MBC, read-out: MBC without PB
A. baumannii ATCC 19606 [5] = assay: MIC determination for Acinetobacter strains (Example 3); type: cell-based; settings: ATCC19606, reference strain
S. pneumoniae 1027 = assay: MIC, panel of quinolone-resistant strains (CLSI); type: cell-based; settings: Streptococcus pneumoniae, LEV R
E. coli IMP = assay: microbe, parasite or virus in culture; settings: Escherichia coli, read-out: MIC E. coli IMP
A. baumannii A473 = assay: MIC determination for Acinetobacter strains (Example 3); type: cell-based; settings: LEV R, CIP R, MRP R, IMP R, AMK R, TET R
A. baumannii A387 [6] = assay: Preliminary MBC without and with sub-inhibitory polymyxin B (Example 4); type: cell-based, Acinetobacter baumannii; settings: Acinetobacter baumannii, A387, A. baumannii A387, without polymyxin B, 2nd experiment, read-out: MBC without PB
A. baumannii A489 = assay: MIC determination for Acinetobacter strains (Example 3); type: cell-based; settings: LEV R, CIP R, MRP R, IMP R, AMK R, TET R
E. coli 25922 = assay: MIC, standard panel of Gram-positive and Gram-negative bacteria (CLSI); type: cell-based, Escherichia coli; settings: Escherichia coli, 25922; CAMHB; read-out: MIC E. coli 25922
A. baumannii J2 [7] = assay: MIC determination for Acinetobacter strains (Example 3); type: cell-based; settings: LEV R, CIP R
[8] = tested on: 11 strains of A. baumannii and one strain of Acinetobacter sp.; assay: Preliminary MBC without and with sub-inhibitory polymyxin B, whole panel (Example 4; also strains not listed separately); type: cell-based; settings: Acinetobacter baumannii, read-out: MBC without PB
A. baumannii A387 [9] = assay: MIC determination for Acinetobacter strains (Example 3); type: cell-based; settings: LEV I, CIP R, IPM R, AMK R, TET R
A. baumannii ATCC 19606 [10] = assay: Preliminary MBC without and with sub-inhibitory polymyxin B (Example 4); type: cell-based, Acinetobacter baumannii; settings: Acinetobacter baumannii, ATCC19606, A. baumannii ATCC 19606; without polymyxin B; 2nd experiment; preliminary MBC; read-out: MBC without PB
S. aureus 25923 HS = assay: MIC, standard panel of Gram-positive and Gram-negative bacteria (CLSI); type: cell-based; settings: Staphylococcus aureus, CAMHB, HS, read-out: MIC S. aureus 25923 HS
[11] = A. baumannii A14, without polymyxin B, 1st experiment
[12] = A. baumannii A14, without polymyxin B, 2nd experiment
[13] = NCTC13301, A. baumannii NCTC 13301, without polymyxin B, 2nd experiment

Row | SMILES | MIC90 (B. thailandensis) | MIC (S. epidermis 12228) | MIC (A. baumannii A390 [1]; 1st experiment) | MIC (A. baumannii A387 [2]; 2nd experiment, visual reading) | MIC (S. aureus SMITH) | MIC (Klebsiella ssp KPC-3) | MIC (P. aeruginosa 27853) | MIC (S. aureus 25923) | MIC (P. aeruginosa 143-3-03) | MIC (A. Baumanii OXA-51) | MIC (A. baumannii A390 [3]) | MBC (A. baumannii J2 [4]; 2nd experiment) | MBC (A. baumannii J2 [4]; 1st experiment) | MIC (S. pneumoniae 1027) | MIC (E. coli IMP) | MIC (A. baumannii A473) | MIC (A. baumannii A489) | MIC (E. coli 25922) | MBC [8, 11] | MBC [8, 12] | other results
1 | Cc1c(-c2ccc(N)cc2)ccn2c(=O)c(C(=O)O)cc(C3CC3)c12 [Compound 8, 8-(4-amino-phenyl)-1-cyclopropyl-9-methyl-4-oxo-quinolizine-3-carboxylic acid] | < 0.024 µg/mL | < 0.008 µg/mL | 16 µg/mL (≈ 47.9 µM) | 1 µg/mL (≈ 2.99 µM) | < 0.03 µg/mL | 16 µg/mL (≈ 47.9 µM) | 1 µg/mL (≈ 2.99 µM) | < 0.008 µg/mL | 2 µg/mL (≈ 5.98 µM) | 4 µg/mL (≈ 12 µM) | 16 µg/mL (≈ 47.9 µM) | 4 µg/mL (≈ 12 µM) | 8 µg/mL (≈ 23.9 µM) | 2 µg/mL (≈ 5.98 µM) | < 0.008 µg/mL | – | – | – | – | – | MIC (A. baumannii A390 [1]; 2nd experiment, visual reading): 16 µg/mL (≈ 47.9 µM); MIC (A. baumannii ATCC 19606 [5]): 1 µg/mL (≈ 2.99 µM)
2 | Cc1c(-c2cc(F)c(N)cc2F)ccn2c(=O)c(C(=O)O)cc(C3CC3)c12 [Compound 2, 8-(3,6-difluoro-4-amino-phenyl)-1-cyclopropyl-9-methyl-4-oxo-quinolizine-3-carboxylic acid] | < 0.048 µg/mL | < 0.008 µg/mL | 8 µg/mL (≈ 21.6 µM) | 1 µg/mL (≈ 2.7 µM) | < 0.03 µg/mL | 8 µg/mL (≈ 21.6 µM) | 2 µg/mL (≈ 5.4 µM) | < 0.008 µg/mL | 2 µg/mL (≈ 5.4 µM) | 4 µg/mL (≈ 10.8 µM) | 8 µg/mL (≈ 21.6 µM) | 8 µg/mL (≈ 21.6 µM) | 4 µg/mL (≈ 10.8 µM) | – | < 0.008 µg/mL | 8 µg/mL (≈ 21.6 µM) | 2 µg/mL (≈ 5.4 µM) | < 0.03 µg/mL | 16 µg/mL (≈ 43.2 µM) | 16 µg/mL (≈ 43.2 µM) | MIC (A. baumannii A387 [2]; 1st experiment): 0.5 µg/mL (≈ 1.35 µM); MBC (A. baumannii A387 [6]): 1 µg/mL (≈ 2.7 µM); MIC (A. baumannii J2 [7]): 4 µg/mL (≈ 10.8 µM); MBC ([8]; NCTC13301, A. baumannii NCTC 13301, without polymyxin B, 1st experiment): 8 µg/mL (≈ 21.6 µM); MBC [8, 13]: 32 µg/mL (≈ 86.4 µM); MIC (A. baumannii A387 [9]): 0.5 µg/mL (≈ 1.35 µM)
3 | Cc1c(-c2ccc(CN)c(F)c2)ccn2c(=O)c(C(=O)O)cc(C3CC3)c12 [Compound 4, 8-(3-fluoro-4-aminomethyl-phenyl)-1-cyclopropyl-9-methyl-4-oxo-quinolizine-3-carboxylic acid] | – | – | – | – | – | 4 µg/mL (≈ 10.9 µM) | – | – | 4 µg/mL (≈ 10.9 µM) | 16 µg/mL (≈ 43.7 µM) | – | 16 µg/mL (≈ 43.7 µM) | 4 µg/mL (≈ 10.9 µM) | 1 µg/mL (≈ 2.73 µM) | < 0.008 µg/mL | – | – | < 0.03 µg/mL | 16 µg/mL (≈ 43.7 µM) | > 32 µg/mL | MBC [8, 13]: 32 µg/mL (≈ 87.3 µM)
4 | Cc1c(-c2ccc(N)cc2)c(F)cn2c(=O)c(C(=O)O)cc(C3CC3)c12 [Compound 7, 8-(4-amino-phenyl)-1-cyclopropyl-7-fluoro-9-methyl-4-oxo-quinolizine-3-carboxylic acid] | < 0.048 µg/mL | < 0.008 µg/mL | 8 µg/mL (≈ 22.7 µM) | – | – | 16 µg/mL (≈ 45.4 µM) | 4 µg/mL (≈ 11.4 µM) | < 0.008 µg/mL | 4 µg/mL (≈ 11.4 µM) | 8 µg/mL (≈ 22.7 µM) | 8 µg/mL (≈ 22.7 µM) | 4 µg/mL (≈ 11.4 µM) | – | 4 µg/mL (≈ 11.4 µM) | < 0.008 µg/mL | 4 µg/mL (≈ 11.4 µM) | 8 µg/mL (≈ 22.7 µM) | – | – | – | Dilutions improvement shift on B. thailandensis MIC90 (between pH 7 and pH 5) (B. thailandensis; pH 7 versus pH 5): Yes, 4×; MBC (A. baumannii ATCC 19606 [10]): 0.25 µg/mL (≈ 0.709 µM); MIC (S. aureus 25923 HS): 1 µg/mL (≈ 2.84 µM)
